Assays:
[1] = system: primary human T-cells; assay: Cytokine secretion on protein level in activated primary human T-cells (13-plex FACS / Luminex, supernatant); assay type: cell-based; details: for IL-1 cytokine concentration / IL-2 cytokine concentration / IL-4 cytokine concentration / IL-5 cytokine concentration / IL-6 cytokine concentration / IL-9 cytokine concentration / IL-10 cytokine concentration / IL-12p70 cytokine concentration / IL-13 cytokine concentration / IL-17 cytokine concentration / IL-22 cytokine concentration / TNF-α cytokine concentration / INF-α cytokine concentration: substance 10^−9M
How it was run: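 Stimulus: PMA/Ionomycin or IFN-γ, 48 h; cells: HaCaT or human peripheral-blood T-cells; tripeptide treatment; readout: supernatant cytokines via 13-plex FACS or Luminex, 48–72 h post-stimulation.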

[2] = system: primary murine T-cells; assay: Cytokine secretion on protein level in activated primary murine T-cells (13-plex FACS / Luminex, supernatant); assay type: cell-based, C57BL/6 mice; details: for IL-1 cytokine concentration / IL-2 cytokine concentration / IL-4 cytokine concentration / IL-5 cytokine concentration / IL-6 cytokine concentration / IL-10 cytokine concentration / IL-13 cytokine concentration / IL-17 cytokine concentration / IL-21 cytokine concentration / IL-22 cytokine concentration / IL-27 cytokine concentration / TNF-α cytokine concentration / IFN-γ cytokine concentration: substance 10^−9M
How it was run: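 T-cells from secondary lymphatic organs of naïve C57BL/6 mice, stimulated with PMA/Ionomycin or IFN-γ; supernatant cytokines measured by 13-plex FACS 48 h and 72 h after stimulation. In another run, PMA/Ionomycin-stimulated cells received compounds at 10^−7, 10^−9 and 10^−11 M, with IFN-γ, IL-17 and IL-10 measured by Luminex.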

[3] = system: human keratinocyte cell line (HaCaT); assay: Cytokine secretion on protein level in activated human keratinocyte cell line HaCaT (13-plex FACS / Luminex, supernatant); assay type: cell-based; details: substance 10^−9M
How it was run: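 Primary T-cells from peripheral blood of healthy volunteers, or HaCaT cells, were activated with PMA/Ionomycin or IFN-γ for 48 h and treated with tripeptides. Supernatants were collected 48 h and 72 h after stimulation and cytokines (IL-1, IL-2, IL-6, IL-12p70, IL-17, IFN-γ, TNF-α) were measured by 13-plex FACS.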

[4] = primary human T-cells stimulated with IFN-γ
[5] = primary human T-cells stimulated with PBS
[6] = primary human T-cells stimulated with PMA/Ionomycin
[7] = primary murine T-cells stimulated with IFN-γ
[8] = primary murine T-cells stimulated with PBS
[9] = primary murine T-cells stimulated with PMA/Ionomycin
[10] = HaCaT stimulated with PMA/Ionomycin

## N^α,N^α-dimethyl-(L)-Lys-(D)-Pro-N^α-methyl-(L)-Val-OH [Example 5]
[1]; activated primary human T-cells
  secretion / expression of pro-inflammatory cytokines (supernatant): immunomodulatory effects were seen
[1]; [4]
  IL-1 cytokine concentration: 0 pg/mL
  IL-2 cytokine concentration: 0 pg/mL
  IL-4 cytokine concentration: 78.18 pg/mL
  IL-5 cytokine concentration: 0 pg/mL
  IL-6 cytokine concentration: 42.52 pg/mL
  IL-9 cytokine concentration: 5.56 pg/mL
  IL-10 cytokine concentration: 61 pg/mL
  IL-12p70 cytokine concentration: 0 pg/mL
  IL-13 cytokine concentration: 29.25 pg/mL
  IL-17 cytokine concentration: 26.44 pg/mL
  IL-22 cytokine concentration: 0 pg/mL
  TNF-α cytokine concentration: 12.52 pg/mL
[1]; [5]
  IL-1 cytokine concentration: 0 pg/mL
  IL-2 cytokine concentration: 0 pg/mL
  IL-4 cytokine concentration: 0 pg/mL
  IL-5 cytokine concentration: 0 pg/mL
  IL-6 cytokine concentration: 94.11 pg/mL
  IL-9 cytokine concentration: 6.74 pg/mL
  IL-10 cytokine concentration: 119.04 pg/mL
  IL-12p70 cytokine concentration: 0 pg/mL
  IL-13 cytokine concentration: 35.75 pg/mL
  IL-17 cytokine concentration: 0 pg/mL
  IL-22 cytokine concentration: 0 pg/mL
  INF-α cytokine concentration: 0 pg/mL
  TNF-α cytokine concentration: 0 pg/mL
[1]; [6]
  IL-1 cytokine concentration: 748 pg/mL
  IL-2 cytokine concentration: 4369.09 pg/mL
  IL-4 cytokine concentration: 92.43 pg/mL
  IL-5 cytokine concentration: 392.66 pg/mL
  IL-6 cytokine concentration: 1051.51 pg/mL
  IL-9 cytokine concentration: 193.58 pg/mL
  IL-10 cytokine concentration: 789.38 pg/mL
  IL-12p70 cytokine concentration: 0 pg/mL
  IL-13 cytokine concentration: 912.49 pg/mL
  IL-17 cytokine concentration: 1164.75 pg/mL
  IL-22 cytokine concentration: 0 pg/mL
  INF-α cytokine concentration: 8770.62 pg/mL
  TNF-α cytokine concentration: 2187.46 pg/mL
[2]; activated primary murine T-cells
  secretion / expression of pro-inflammatory cytokines (supernatant): immunomodulatory effects were seen
[2]; [7]
  IL-1 cytokine concentration: 49.65 pg/mL
  IL-2 cytokine concentration: 89.76 pg/mL
  IL-4 cytokine concentration: 47.55 pg/mL
  IL-5 cytokine concentration: 263.27 pg/mL
  IL-6 cytokine concentration: 127.92 pg/mL
  IL-10 cytokine concentration: 1359.92 pg/mL
  IL-13 cytokine concentration: 0 pg/mL
  IL-17 cytokine concentration: 97.22 pg/mL
  IL-21 cytokine concentration: 0 pg/mL
  IL-22 cytokine concentration: 32.03 pg/mL
  IL-27 cytokine concentration: 20.07 pg/mL
  TNF-α cytokine concentration: 24.23 pg/mL
[2]; [8]
  IFN-γ cytokine concentration: 232.8 pg/mL
  IL-1 cytokine concentration: 56.42 pg/mL
  IL-2 cytokine concentration: 151.25 pg/mL
  IL-4 cytokine concentration: 53.6 pg/mL
  IL-5 cytokine concentration: 209.32 pg/mL
  IL-6 cytokine concentration: 117.95 pg/mL
  IL-10 cytokine concentration: 1311.94 pg/mL
  IL-13 cytokine concentration: 0 pg/mL
  IL-17 cytokine concentration: 0 pg/mL
  IL-21 cytokine concentration: 13.71 pg/mL
  IL-22 cytokine concentration: 27.66 pg/mL
  IL-27 cytokine concentration: 81.64 pg/mL
  TNF-α cytokine concentration: 32.89 pg/mL
[2]; [9]
  IFN-γ cytokine concentration: 2075.42 pg/mL
  IL-1 cytokine concentration: 178.79 pg/mL
  IL-2 cytokine concentration: 112.62 pg/mL
  IL-4 cytokine concentration: 81.4 pg/mL
  IL-5 cytokine concentration: 246.42 pg/mL
  IL-6 cytokine concentration: 189.2 pg/mL
  IL-10 cytokine concentration: 1233.45 pg/mL
  IL-13 cytokine concentration: 0 pg/mL
  IL-17 cytokine concentration: 0 pg/mL
  IL-21 cytokine concentration: 67.28 pg/mL
  IL-22 cytokine concentration: 29.38 pg/mL
  IL-27 cytokine concentration: 51.58 pg/mL
  TNF-α cytokine concentration: 29.15 pg/mL
[3]; HaCaT stimulated with IFN-γ
  IL-1 cytokine concentration: 0 pg/mL
  IL-2 cytokine concentration: 0 pg/mL
  IL-4 cytokine concentration: 0 pg/mL
  IL-5 cytokine concentration: 0 pg/mL
  IL-6 cytokine concentration: 415.82 pg/mL
  IL-9 cytokine concentration: 0 pg/mL
  IL-10 cytokine concentration: 41.86 pg/mL
  IL-12p70 cytokine concentration: 0 pg/mL
  IL-13 cytokine concentration: 1974.31 pg/mL
  IL-17 cytokine concentration: 0 pg/mL
  IL-22 cytokine concentration: 0 pg/mL
  TNF-α cytokine concentration: 0 pg/mL
[3]; HaCaT stimulated with PBS
  IFN-γ cytokine concentration: 0 pg/mL
  IL-1 cytokine concentration: 0 pg/mL
  IL-2 cytokine concentration: 149.51 pg/mL
  IL-4 cytokine concentration: 152.8 pg/mL
  IL-5 cytokine concentration: 133.49 pg/mL
  IL-6 cytokine concentration: 218.63 pg/mL
  IL-9 cytokine concentration: 28.51 pg/mL
  IL-10 cytokine concentration: 89.86 pg/mL
  IL-12p70 cytokine concentration: 0 pg/mL
  IL-13 cytokine concentration: 0 pg/mL
  IL-17 cytokine concentration: 18.83 pg/mL
  IL-22 cytokine concentration: 0 pg/mL
  TNF-α cytokine concentration: 0 pg/mL
[3]; [10]
  IFN-γ cytokine concentration: 199.65 pg/mL
  IL-1 cytokine concentration: 104.98 pg/mL
  IL-2 cytokine concentration: 145.65 pg/mL
  IL-4 cytokine concentration: 168.7 pg/mL
  IL-5 cytokine concentration: 1.93 pg/mL
  IL-6 cytokine concentration: 379.04 pg/mL
  IL-9 cytokine concentration: 0 pg/mL
  IL-10 cytokine concentration: 59.49 pg/mL
  IL-12p70 cytokine concentration: 0 pg/mL
  IL-13 cytokine concentration: 0 pg/mL
  IL-17 cytokine concentration: 95.44 pg/mL
  IL-22 cytokine concentration: 0 pg/mL
  TNF-α cytokine concentration: 27.45 pg/mL
